Reference: US10278965B2, “Method of detecting cancer stem cell, method of screening cancer stem cell, and method of inhibiting cancer stem cell” (CANON KABUSHIKI KAISHA, priority 2012, dated 2019)

What was measured:
[1] = Measurement of fluorescent property of compound; format: physicochemical; conditions: 5 μM DMSO solution
Protocol: The excitation wavelength and fluorescence wavelength of the compound were measured by a FL4500 spectrofluorometric measuring machine manufactured by Hitachi High-Technologies Corporation.

[2] = system: Human chronic myelocytic leukemia cells, K562, ALDH (+) fraction (cancer stem cells); test: Cancer stem-cell selective inhibitory action against chronic myelocytic leukemia cells, ALDH (+) fraction; format: cell-based; conditions: 24 hours; for ALDH(+) Superiority evaluation / ALDH(+)/ALDH(−): K562, 10 μg/ml; for ALDH(+) growth rate / Growth suppression evaluated: K562 ALDH(+), 10 μg/ml
Protocol: (§1) Human chronic myelocytic leukemia cells, K562, were pre-cultured in RPMI1640 medium containing 10% FBS at 37° C. in a 5% CO2 ambient. Then, a fraction containing 80% or more of cancer stem cells was extracted by use of a cancer stem cell marker, ALDEFLUOR reagent (manufactured by VERITAS Corporation) and FACSAria flow cytometry (manufactured by Nippon Becton, Dickinson and Company). […] The cultured cells were analyzed for viable cell count according to CellTiter-Glo Luminescent Cell Viability Assay (manufactured by Promega KK.). […] Note that hereinafter, an ALDEFLUOR reagent positive fraction (deemed as cancer stem cells) is represented by ALDH (+), whereas an ALDEFLUOR reagent negative fraction (not deemed as cancer stem cells) is represented by ALDH (−), in some cases.
(§2) Further, the growth suppressive effect of cancer stem cells was evaluated based on the following criteria. Note that the growth rate in Examples is a value obtained by dividing viable cell count after culture by the number of cells at the initiation time of culture.

[3] = system: Human chronic myelocytic leukemia cells, K562, ALDH (−) fraction (general cancer cells); test: Cancer stem-cell selective inhibitory action against chronic myelocytic leukemia cells, ALDH (−) fraction; format: cell-based; conditions: K562 ALDH(−), 10 μg/ml, 24 hours
Protocol: as §1, §2

[4] = system: Prostatic cancer cells, PC-3; test: Cancer cell inhibitory (growth suppressive) action against prostatic cancer cells, CellTiter-Glo viable cell count; format: cell-based; conditions: PC-3, 10 μg/mL, 24 hours
Protocol: Prostatic cancer cells, PC-3, were pre-cultured in RPMI1640 medium containing 10% FBS at 37° C. in a 5% CO2 ambient. Thereafter, 4,000 cells were seeded per well of a 96-well plate and further cultured for 24 hours. Subsequently, Compound (1) was added to the medium so as to obtain a final concentration of 10 μg/mL and cultured at 37° C. for 24 hours in a 5% CO2 ambient. The cultured cells were analyzed for viable cell count according to Cell Titer-Glo Luminescent Cell Viability Assay (manufactured by Promega KK.).
Viable cell count was analyzed in the same manner as in Experimental Example 24 except that Compound (1) of Experimental Example 24 was changed to each compound shown in Table 2.
Viable cell count was analyzed in the same manner as in Experimental Example 24 except that Compound (1) of Experimental Example 24 was changed to each of Comparative compounds 1 to 4, to obtain growth rates.
Note that the growth rate used in Examples refers to the rate (expressed by percentage) of viable cell count after culture relative to the number of cells at the initiation of cell culture. Evaluation criteria are the same as in the above experiments.

[5] = system: Human pancreas cancer cells, KLM-1; test: Cancer cell inhibitory (growth suppressive) action against pancreatic cancer cells, CellTiter-Glo viable cell count; conditions: KLM-1, 10 μg/mL, 24 hours

Compound | Excitation wavelength λex [1] | Fluorescence wavelength λem [1] | ALDH(+) Superiority evaluation [2] | ALDH(+)/ALDH(−) [2] | ALDH(+) growth rate [2] | Growth suppression evaluated [2] | ALDH(−) growth rate [3] | Cancer cell growth rate (%) [4] | Evaluation (cancer cell growth rate) [4] | Cancer cell growth rate (%) [5] | Evaluation (cancer cell growth rate) [5]
CCN1/C(=C\C=C\c2oc3ccccc3[n+]2CC)Oc2ccccc21 [Compound 14] | 491 nm | 510 nm | A (The value of the growth rate of ALDH (+)/the growth rate of ALDH (−) is less than 0.8) | 0.77 | 0.38 | A (The growth rate of ALDH (+) is less than 0.5) | 0.49 | – | – | – | –
CCN1/C(=C/C=C/C=C/C=C/c2oc3ccccc3[n+]2CC)Oc2ccccc21 [Compound 33] | – | – | B (The value of the growth rate of ALDH (+)/the growth rate of ALDH (−) is 0.8 or more and less than 0.95) | 0.84 | 0.83 | B (The growth rate of ALDH (+) is 0.5 or more and less than 0.95) | 1.00 | – | – | – | –
CCN1/C(=C\C(C)=C\c2sc3ccccc3[n+]2CC)Sc2ccccc21 [Compound 5] | 560 nm | 628 nm | A (The value of the growth rate of ALDH (+)/the growth rate of ALDH (−) is less than 0.8) | 0.79 | – | – | – | 15.0% | A (Cancer cell growth rate is less than 20%) | 6.4% | A (Cancer cell growth rate is less than 20%)
CCCN1\C(=C/C=C/C=C/C2=[N+](CCC)c3ccccc3C2(C)C)C(C)(C)c2ccccc21 [Compound 27] | 650 nm | 675 nm | A (The value of the growth rate of ALDH (+)/the growth rate of ALDH (−) is less than 0.8) | 0.56 | – | – | – | 7.7% | A (Cancer cell growth rate is less than 20%) | 6.0% | A (Cancer cell growth rate is less than 20%)
CCN1/C(=C\C=C\C2=[N+](CC)c3ccccc3C2(C)C)C(C)(C)c2ccccc21.[I-] [Compound 22] | 553 nm | 570 nm | A (The value of the growth rate of ALDH (+)/the growth rate of ALDH (−) is less than 0.8) | 0.75 | 0.22 | A (The growth rate of ALDH (+) is less than 0.5) | 0.29 | – | – | – | –
CCN1/C(=C/C=C2\CCCC(/C=C/C3=[N+](CC)c4ccc(OC)cc4C34CCCCC4)=C2Oc2ccc(C(c3ccccc3)c3ccccc3)cc2)C2(CCCCC2)c2cc(OC)ccc21 [Compound 58] | – | – | B (The value of the growth rate of ALDH (+)/the growth rate of ALDH (−) is 0.8 or more and less than 0.95) | 0.82 | 0.70 | B (The growth rate of ALDH (+) is 0.5 or more and less than 0.95) | 0.85 | – | – | – | –
CCN1/C(=C\C=C\c2ccc3ccccc3[n+]2CC)C=Cc2ccccc21.[I-] [Compound 47] | 615 nm | 637 nm | – | – | – | – | – | 13.8% | A (Cancer cell growth rate is less than 20%) | 8.6% | A (Cancer cell growth rate is less than 20%)
CCN1/C(=C\C=C\c2sc3ccccc3[n+]2CC)Sc2ccccc21 [Compound 1] | 485 nm | 575 nm | B (The value of the growth rate of ALDH (+)/the growth rate of ALDH (−) is 0.8 or more and less than 0.95) | 0.87 | – | – | – | 13.8% | A (Cancer cell growth rate is less than 20%) | 31.9% | B (Cancer cell growth rate is 20% or more and less than 50%)
